Measurements from US9266876B2 (Actelion Pharmaceuticals Ltd., priority 2012, dated 2016).

Experiments:
human CXCR3A = human CXCR3A (Homo sapiens (Human), UniProt P49682); assay: FLIPR assay; assay type: cell-based; settings: CHO-K1 cells expressing the human CXCR3A coupled to Galpha(16); CXCL10 agonist 20 nM; Fluo-4-AM fluorescence; mean values if determined several times
Outline: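 CHO-K1 cells expressing CXCR3A coupled to Gα16 were loaded with Fluo-4-AM for 1 h in Hepes-buffered HBSS, pH 7.4, with 5 mM probenecid. Compound dilutions were added on the FLIPR, followed by CXCL10 (added as a 20 nM solution). Baseline-subtracted peak fluorescence was fitted to a single-site curve for IC50.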

CXCR3 = CXCR3 (Homo sapiens (Human), UniProt P49682); assay: Receptor internalization assay; assay type: cell-based; settings: human whole blood; final CXCL10 concentration 9 nM; 30 min 37° C.; CXCR3 cell surface expression on CD3 positive cells, flow cytometer; read-out: Internalization IC50
CXCR3, sequence (P49682 whole entry): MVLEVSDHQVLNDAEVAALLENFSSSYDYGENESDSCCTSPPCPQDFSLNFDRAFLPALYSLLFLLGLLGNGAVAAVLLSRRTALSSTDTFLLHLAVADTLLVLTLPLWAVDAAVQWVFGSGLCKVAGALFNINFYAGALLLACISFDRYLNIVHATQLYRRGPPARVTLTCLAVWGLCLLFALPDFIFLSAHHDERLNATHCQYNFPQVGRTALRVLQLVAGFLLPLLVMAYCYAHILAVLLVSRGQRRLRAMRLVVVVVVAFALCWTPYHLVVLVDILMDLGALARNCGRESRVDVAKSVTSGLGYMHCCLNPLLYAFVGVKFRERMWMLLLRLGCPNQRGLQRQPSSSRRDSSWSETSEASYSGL
Outline: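 In human whole blood, compounds were incubated with CXCL10 (9 nM final) for 30 min at 37 °C to drive receptor internalization, then stained with anti-CXCR3/CD3 antibodies and lysed of red cells. Flow cytometry measured mean surface CXCR3 fluorescence on CD3+ cells, and IC50 came from single-site dose-response fits.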

human CXCR3A, sequence (P49682 whole entry): as above

C[C@@H]1CN(c2sc(C(F)(F)F)nc2-c2nc3ccccc3[nH]2)CCN1C(=O)Cn1ccc(C(F)(F)F)n1 [Example 193, 1-{(R)-4-[4-(1H-Benzoimidazol-2-yl)-2-trifluoromethyl-thiazol-5-yl]-2-methyl-piperazin-1-yl}-2-(3-trifluoromethyl-pyrazol-1-yl)-ethanone]
IC50 (human CXCR3A): 1 nM
IC50 (CXCR3): 210 nM

C[C@@H]1CN(c2sc(C(F)(F)F)nc2-c2nc3ccccc3[nH]2)CCN1C(=O)Cn1cncn1 [Example 194, 1-{(R)-4-[4-(1H-Benzoimidazol-2-yl)-2-trifluoromethyl-thiazol-5-yl]-2-methyl-piperazin-1-yl}-2-[1,2,4]triazol-1-yl-ethanone]
IC50 (human CXCR3A): 8 nM
IC50 (CXCR3): 1410 nM

Cc1nnc(CC(=O)N2CCN(c3sc(C(F)(F)F)nc3-c3nc4ccccc4[nH]3)C[C@H]2C)o1 [Example 195, 1-{(R)-4-[4-(1H-Benzoimidazol-2-yl)-2-trifluoromethyl-thiazol-5-yl]-2-methyl-piperazin-1-yl}-2-(5-methyl-[1,3,4]oxadiazol-2-yl)-ethanone]
IC50 (human CXCR3A): 8 nM
IC50 (CXCR3): 2710 nM

C[C@@H]1CN(c2sc(C(F)(F)F)nc2-c2nc3ccccc3[nH]2)CCN1C(=O)Cc1nnc(-c2ccccc2)o1 [Example 196, 1-{(R)-4-[4-(1H-Benzoimidazol-2-yl)-2-trifluoromethyl-thiazol-5-yl]-2-methyl-piperazin-1-yl}-2-(5-phenyl-[1,3,4]oxadiazol-2-yl)-ethanone]
IC50 (human CXCR3A): 6 nM
IC50 (CXCR3): 6560 nM

C[C@@H]1CN(c2sc(C(F)(F)F)nc2-c2nc3ccccc3[nH]2)CCN1C(=O)Cn1nccn1 [Example 197, 1-{(R)-4-[4-(1H-Benzoimidazol-2-yl)-2-trifluoromethyl-thiazol-5-yl]-2-methyl-piperazin-1-yl}-2-[1,2,3]triazol-2-yl-ethanone]
IC50 (human CXCR3A): 8 nM
IC50 (CXCR3): 5310 nM

COC(=O)c1ccn(CC(=O)N2CCN(c3sc(C(F)(F)F)nc3-c3nc4ccccc4[nH]3)C[C@H]2C)n1 [Example 198, 1-(2-{(R)-4-[4-(1H-Benzoimidazol-2-yl)-2-trifluoromethyl-thiazol-5-yl]-2-methyl-piperazin-1-yl}-2-oxo-ethyl)-1H-pyrazole-3-carboxylic acid methyl ester]
IC50 (human CXCR3A): 2 nM
IC50 (CXCR3): 6900 nM

Cc1ccc(CC(=O)N2CCN(c3sc(C(F)(F)F)nc3-c3nc4ccccc4[nH]3)C[C@H]2C)cn1 [Example 199, 1-{(R)-4-[4-(1H-Benzoimidazol-2-yl)-2-trifluoromethyl-thiazol-5-yl]-2-methyl-piperazin-1-yl}-2-(6-methyl-pyridin-3-yl)-ethanone]
IC50 (human CXCR3A): 0.4 nM
IC50 (CXCR3): 658 nM

C[C@@H]1CN(c2sc(C(F)(F)F)nc2-c2nc3ccccc3[nH]2)CCN1C(=O)Cc1ccccc1-n1nccn1 [Example 200, 1-{(R)-4-[4-(1H-Benzoimidazol-2-yl)-2-trifluoromethyl-thiazol-5-yl]-2-methyl-piperazin-1-yl}-2-(2-[1,2,3]triazol-2-yl-phenyl)-ethanone]
IC50 (human CXCR3A): 28 nM
IC50 (CXCR3): 627 nM

C[C@@H]1CN(c2sc(C(F)(F)F)nc2-c2nc3ccccc3[nH]2)CCN1C(=O)Cc1cccc(-n2nccn2)c1 [Example 201, 1-{(R)-4-[4-(1H-Benzoimidazol-2-yl)-2-trifluoromethyl-thiazol-5-yl]-2-methyl-piperazin-1-yl}-2-(3-[1,2,3]triazol-2-yl-phenyl)-ethanone]
IC50 (human CXCR3A): 2 nM
IC50 (CXCR3): 2860 nM

C[C@@H]1CN(c2sc(C(F)(F)F)nc2-c2nc3ccccc3[nH]2)CCN1C(=O)Cn1cc2cccnc2n1 [Example 202, 1-{(R)-4-[4-(1H-Benzoimidazol-2-yl)-2-trifluoromethyl-thiazol-5-yl]-2-methyl-piperazin-1-yl}-2-pyrazolo[3,4-b]pyridin-2-yl-ethanone]
IC50 (human CXCR3A): 1 nM
IC50 (CXCR3): 44 nM

C[C@@H]1CN(c2sc(C(F)(F)F)nc2-c2nc3ccccc3[nH]2)CCN1C(=O)Cc1ccccc1-n1cccn1 [Example 203, 1-{(R)-4-[4-(1H-Benzoimidazol-2-yl)-2-trifluoromethyl-thiazol-5-yl]-2-methyl-piperazin-1-yl}-2-(2-pyrazol-1-yl-phenyl)-ethanone]
IC50 (human CXCR3A): 5 nM
IC50 (CXCR3): 2100 nM

C[C@@H]1CN(c2sc(C(F)(F)F)nc2-c2nc3ccccc3[nH]2)CCN1C(=O)Cn1nccc1-c1ccccc1 [Example 204, 1-{(R)-4-[4-(1H-Benzoimidazol-2-yl)-2-trifluoromethyl-thiazol-5-yl]-2-methyl-piperazin-1-yl}-2-(5-phenyl-pyrazol-1-yl)-ethanone]
IC50 (human CXCR3A): 6 nM
IC50 (CXCR3): 4180 nM

C[C@@H]1CN(c2sc(C(F)(F)F)nc2-c2nc3ccccc3[nH]2)CCN1C(=O)CN1C(=O)C(F)(F)c2ccccc21 [Example 205, 1-(2-{(R)-4-[4-(1H-Benzoimidazol-2-yl)-2-trifluoromethyl-thiazol-5-yl]-2-methyl-piperazin-1-yl}-2-oxo-ethyl)-3,3-difluoro-1,3-dihydro-indol-2-one]
IC50 (human CXCR3A): 2 nM
IC50 (CXCR3): 111 nM

C[C@@H]1CN(c2sc(C(F)(F)F)nc2-c2nc3ccccc3[nH]2)CCN1C(=O)Cn1cnc2cnccc21 [Example 206, 1-{(R)-4-[4-(1H-Benzoimidazol-2-yl)-2-trifluoromethyl-thiazol-5-yl]-2-methyl-piperazin-1-yl}-2-imidazo[4,5-c]pyridin-1-yl-ethanone]
IC50 (human CXCR3A): 2 nM
IC50 (CXCR3): 260 nM

C[C@@H]1CN(c2sc(C(F)(F)F)nc2-c2nc3ccccc3[nH]2)CCN1C(=O)Cn1cnc(Br)n1 [Example 207, 1-{(R)-4-[4-(1H-Benzoimidazol-2-yl)-2-trifluoromethyl-thiazol-5-yl]-2-methyl-piperazin-1-yl}-2-(3-bromo-[1,2,4]triazol-1-yl)-ethanone]
IC50 (human CXCR3A): 1 nM
IC50 (CXCR3): 332 nM

C[C@@H]1CN(c2sc(C(F)(F)F)nc2-c2nc3ccccc3[nH]2)CCN1C(=O)Cc1ccccc1N1CCN(C)CC1 [Example 208, 1-{(R)-4-[4-(1H-Benzoimidazol-2-yl)-2-trifluoromethyl-thiazol-5-yl]-2-methyl-piperazin-1-yl}-2-[2-(4-methyl-piperazin-1-yl)-phenyl]-ethanone]
IC50 (human CXCR3A): 1 nM
IC50 (CXCR3): 310 nM

C[C@@H]1CN(c2sc(C(F)(F)F)nc2-c2nc3ccccc3[nH]2)CCN1C(=O)Cn1cnc2c1CCN(C)C2 [Example 209, 1-{(R)-4-[4-(1H-Benzoimidazol-2-yl)-2-trifluoromethyl-thiazol-5-yl]-2-methyl-piperazin-1-yl}-2-(5-methyl-4,5,6,7-tetrahydro-imidazo[4,5-c]pyridin-1-yl)-ethanone]
IC50 (human CXCR3A): 3 nM
IC50 (CXCR3): 101 nM

C[C@@H]1CN(c2sc(C(F)(F)F)nc2-c2nc3ccccc3[nH]2)CCN1C(=O)Cn1cnc2c1CN(C)CC2 [Example 210, 1-{(R)-4-[4-(1H-Benzoimidazol-2-yl)-2-trifluoromethyl-thiazol-5-yl]-2-methyl-piperazin-1-yl}-2-(5-methyl-4,5,6,7-tetrahydro-imidazo[4,5-c]pyridin-3-yl)-ethanone]
IC50 (human CXCR3A): 1 nM
IC50 (CXCR3): 121 nM

Cc1nn(CC(=O)N2CCN(c3sc(C(F)(F)F)nc3-c3nc4ccccc4[nH]3)C[C@H]2C)cc1CN(C)C [Example 211, 1-{(R)-4-[4-(1H-Benzoimidazol-2-yl)-2-trifluoromethyl-thiazol-5-yl]-2-methyl-piperazin-1-yl}-2-(4-dimethylaminomethyl-3-methyl-pyrazol-1-yl)-ethanone]
IC50 (human CXCR3A): 1 nM
IC50 (CXCR3): 227 nM

Cc1ncnn1CC(=O)N1CCN(c2sc(C(F)(F)F)nc2-c2nc3ccccc3[nH]2)C[C@H]1C [Example 212, 1-{(R)-4-[4-(1H-Benzoimidazol-2-yl)-2-trifluoromethyl-thiazol-5-yl]-2-methyl-piperazin-1-yl}-2-(5-methyl-[1,2,4]triazol-1-yl)-ethanone]
IC50 (human CXCR3A): 4 nM
IC50 (CXCR3): 737 nM

Cc1ncn(CC(=O)N2CCN(c3sc(C(F)(F)F)nc3-c3nc4ccccc4[nH]3)C[C@H]2C)n1 [Example 213, 1-{(R)-4-[4-(1H-Benzoimidazol-2-yl)-2-trifluoromethyl-thiazol-5-yl]-2-methyl-piperazin-1-yl}-2-(3-methyl-[1,2,4]triazol-1-yl)-ethanone]
IC50 (human CXCR3A): 1 nM
IC50 (CXCR3): 373 nM

Cc1nn(CC(=O)N2CCN(c3sc(C(F)(F)F)nc3-c3nc4ccccc4[nH]3)C[C@H]2C)c(C)c1CN(C)C [Example 214, 1-{(R)-4-[4-(1H-Benzoimidazol-2-yl)-2-trifluoromethyl-thiazol-5-yl]-2-methyl-piperazin-1-yl}-2-(4-dimethylaminomethyl-3,5-dimethyl-pyrazol-1-yl)-ethanone]
IC50 (human CXCR3A): 2 nM
IC50 (CXCR3): 72 nM

C[C@@H]1CN(c2sc(C(F)(F)F)nc2-c2nc3ccccc3[nH]2)CCN1C(=O)Cn1cc2c(n1)CCN(C)C2 [Example 215, 1-{(R)-4-[4-(1H-Benzoimidazol-2-yl)-2-trifluoromethyl-thiazol-5-yl]-2-methyl-piperazin-1-yl}-2-(5-methyl-4,5,6,7-tetrahydro-pyrazolo[4,3-c]pyridin-2-yl)-ethanone]
IC50 (human CXCR3A): 2 nM
IC50 (CXCR3): 271 nM

C[C@@H]1CN(c2sc(C(F)(F)F)nc2-c2nc3ccccc3[nH]2)CCN1C(=O)Cn1ncc2c1CCN(C)C2 [Example 216, 1-{(R)-4-[4-(1H-Benzoimidazol-2-yl)-2-trifluoromethyl-thiazol-5-yl]-2-methyl-piperazin-1-yl}-2-(5-methyl-4,5,6,7-tetrahydro-pyrazolo[4,3-c]pyridin-1-yl)-ethanone]
IC50 (human CXCR3A): 2 nM
IC50 (CXCR3): 90 nM
